Assay [1] concerns GSK-3. Conditions: read-out: concentration that inhibits GSK-3 to half maximal activity; cited from earlier work.
Assay [2] relates to HeLa cells. Description: Glycogen assay (glucoamylase hydrolysis, glucose Trinder reagent). It counts as cell-based, human. To be noted: uninfected control HeLa cells, 35 μM roscovitine. As to the method: (§1) Cultured cells lines were seeded on six or twelve well tissue culture plates. When they reached 70-85% confluence, cells were infected with various amounts of recombinant GL adenovirus or control adenovirus. Adenovirus was added to each well in 300 μl medium and incubated for 2 hours at 37° C., 5% CO2. After incubation, 1.5 ml of medium was added and incubated at 37° C., 5% CO2. The medium was changed every day. At various time points post-infection, viable cells were counted using Trypan Blue and the remaining cells were collected and frozen for subsequent glycogen measurements.
Glycogen Assay: Enzymatic glycogen hydrolysis to glucose was performed according to Keppler and Decker with some modifications (Keppler and Decker, 1984 in: Methods of Enzymatic Analysis, 3rd ed. (Bergmeyer, H. U. Bergmeyer, J., and Grab, M. Eds.), Vol. 6, pp. 11-18, VCH, New York.). In brief, frozen cell pellets were subjected to three rounds of freezing and thawing to disrupt cell membranes. Cell pellets were resuspended in 200 μl 250 mU glucoamylase in 0.2 M sodium acetate buffer, pH 4.8. Lysates were incubated for two hours at 45° C. with shaking. Lysates were cleared by centrifugation at 2500 rpm for 10 min. […] Glucose was then determined with the glucose Trinder colorometric reagent (Sigma, 315-500). The intensity of the color reaction was measured at 505nm using a Molecular Devices VERSAmax microplate reader. […]

Assay [3] deals with HeLa cells. Description: Adenovirus infection, Trypan Blue viability cell counts and morphology. Conditions: roscovitine-treated versus untreated. The class given is cell-based, human. The protocol: as §1
Trypan Blue Viability Cell Counts: Trypan Blue (0.4%, Gibco) was used to stain dead and dying cells. Cells were removed from the tissue culture plates with 0.25% Trypsin-EDTA (Gibco #25200-056) and resuspended in 1 ml phosphate buffered saline (PBS). Manual cell counts were performed with a Neubauer hemocytometer.
Roscovitine Studies: Roscovitine (Calbiochem #557362), [2-(R)-(1-ethyl-2-hydroxyethylamino)-6-benzyl amino-9-isopropylpurine], is a potent and selective inhibitor of the cyclin-dependent kinases Cdk2 and Cdc2. Roscovitine stock solution was prepared in dimethylsulfoxide (DMSO) and stored at −20° C. until use. […]
Cell viability after viral infection was assessed using the Trypan Blue exclusion assay. Cells stained with Trypan Blue and viable cells are counted using a Neubauer hemocytometer. […]

The subject of assay [4] is GSK-3. To be noted: cited from earlier work.

With `[Be+2]` [beryllium], the IC50 in the assay with GSK-3 [1] is 6 mM. As for `CC[C@H](CO)Nc1nc(NCc2ccccc2)c2ncn(C(C)C)c2n1` [roscovitine, 2-(R)-(1-ethyl-2-hydroxyethylamino)-6-benzyl amino-9-isopropylpurine], the glycogen accumulation entry with HeLa cells [2] is on record as “no significant increases”. In the assay with HeLa cells [3], the “cell viability of AdGL-infected cells” value is “significantly decreased”. For the molecule `[Zn+2]` [zinc], the “concentration at which GSK-3 is inhibited in cell culture” value with GSK-3 [4] is listed as 15 mM.

(Values after patent US20050202559A1, “Cancer treatment by metabolic modulations” (priority 2002, published 2005).)
